# Test results as given in PubChem BioAssay (NCI).
# Several values for one entry are separate records, joined by “and”; a condition that tells them apart may be missing. Equal values may be shown once.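 Where inhibition never reached the appropriate level, the endpoint shown equals the highest concentration tested. Otherwise, values were interpolated linearly from a five-concentration, 48-hour dose response in 96-well plates. Abbreviation: GI50, concentration required for 50% inhibition of growth. Definition used: TGI = concentration required for complete inhibition of growth.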
# Experiments:
# Test in all cases: NCI-60 cell line screen, 48 h
# LXFL 529 NSCLC = system: LXFL 529 NSCLC
# DLD-1 colon = system: DLD-1 colon
# DMS 114 small cell lung = system: DMS 114 small cell lung
# KM20L2 colon = system: KM20L2 colon
# SNB-78 CNS = system: SNB-78 CNS
# XF 498 CNS = system: XF 498 CNS
# HOP-18 NSCLC = system: HOP-18 NSCLC
# M19-MEL melanoma = system: M19-MEL melanoma
# MDA-MB-231 breast = system: MDA-MB-231 breast
# DMS 273 small cell lung = system: DMS 273 small cell lung
# RXF-631 renal = system: RXF-631 renal
compound,measurement,setting,value
COc1cc(CNc2ccc(C)cc2)cc(OC)c1OC,TGI,LXFL 529 NSCLC,> 100 µM
same,TGI,DLD-1 colon,> 100 µM
same,TGI,DMS 114 small cell lung,0.981 µM and 3.08 µM
same,TGI,KM20L2 colon,0.447 µM and 0.939 µM
same,TGI,SNB-78 CNS,> 100 µM
same,GI50,XF 498 CNS,1.98 µM
same,TGI,XF 498 CNS,> 100 µM
same,GI50,HOP-18 NSCLC,17.8 µM and > 60.8 µM
same,TGI,HOP-18 NSCLC,> 100 µM
same,TGI,M19-MEL melanoma,> 100 µM
C#CCNC(CCCN=C(N)N)C(=O)O (stereo not drawn),TGI,MDA-MB-231 breast,> 100 µM
Cc1cc(O)c(C(O)c2ccccn2)cc1O (stereo not drawn),TGI,MDA-MB-231 breast,33.3 µM
Nc1ccc(C(=O)NN2C(=O)C(Cl)C2c2ccc(O)cc2)cc1 (stereo not drawn),TGI,LXFL 529 NSCLC,31.7 µM
same,TGI,DLD-1 colon,33.4 µM
same,TGI,DMS 114 small cell lung,25.7 µM
same,TGI,KM20L2 colon,41.9 µM
same,TGI,SNB-78 CNS,44.6 µM
same,TGI,XF 498 CNS,27.8 µM
same,TGI,DMS 273 small cell lung,35.1 µM
same,TGI,M19-MEL melanoma,38.8 µM
CCCCCCCCCCCC(=O)OCC(O)CO (stereo not drawn),TGI,MDA-MB-231 breast,> 100 µM
CN(C)/C=N/S(=O)(=O)c1nn2c(C=O)c(-c3ccc(-c4ccccc4)cc3)nc2s1,TGI,MDA-MB-231 breast,7.35 µM
CCCCCCCCCCCCCCCCNc1nc(=O)n(C2CC(O)C(COP(=O)(O)OC3CC(n4cc(F)c(=O)[nH]c4=O)OC3CO)O2)cc1F (stereo not drawn),TGI,MDA-MB-231 breast,> 91.5 µM
O=C(O)c1cc(-c2ccc3cc(O)c(O)cc3c2)ccc1O,TGI,MDA-MB-231 breast,> 12.5 µM
Cc1cc(NS(=O)(=O)c2ccc(NC(=O)c3ccc4nc5ccccc5c(Nc5ccc(S(N)(=O)=O)cc5)c4c3)cc2)no1,TGI,MDA-MB-231 breast,67.1 µM
CCOC1OC(CO[Si](C)(C)C(C)(C)C)C(O)CC1n1ccc(=O)[nH]c1=O (stereo not drawn),TGI,MDA-MB-231 breast,> 100 µM
COc1c(O)ccc(/C=N/NC(=S)NCOCCOC(C)=O)c1OC,TGI,LXFL 529 NSCLC,> 100 µM
same,TGI,RXF-631 renal,> 100 µM
same,TGI,DLD-1 colon,> 100 µM
same,TGI,DMS 114 small cell lung,> 100 µM
same,TGI,KM20L2 colon,> 100 µM
same,TGI,SNB-78 CNS,> 100 µM
same,TGI,XF 498 CNS,> 100 µM
same,TGI,HOP-18 NSCLC,> 100 µM
same,TGI,DMS 273 small cell lung,> 100 µM
same,TGI,M19-MEL melanoma,> 100 µM
c1ccc2c(c1)n1c(N3CCCC3)[n+]3ccccc3c1c1c3cccc[n+]3c(N3CCCC3)n21,TGI,MDA-MB-231 breast,> 100 µM
CCOP(=O)(OCC)/C(C#N)=C/c1cccn1C,TGI,MDA-MB-231 breast,> 100 µM
CC(C)CC1C(=O)OC(C)(C)OC1=O,TGI,MDA-MB-231 breast,> 100 µM
COC(=O)/C=C1/OC(c2ccccc2)=C(Br)C1=O,TGI,MDA-MB-231 breast,66.3 µM
O=C1NCC2(CCN(CC3COc4ccccc4O3)CC2)N1c1ccccc1 (stereo not drawn),TGI,MDA-MB-231 breast,> 100 µM
CCOC(=O)C1Cc2ccc(C)cc2C1=O (stereo not drawn),TGI,MDA-MB-231 breast,> 100 µM
CC[n+]1c(/C=C/c2cc(C(=O)OC)n3c2sc2ccccc23)sc2ccccc21,TGI,LXFL 529 NSCLC,32.9 µM
same,TGI,DMS 114 small cell lung,52.9 µM
same,TGI,KM20L2 colon,35.1 µM
same,TGI,XF 498 CNS,29.3 µM
same,TGI,DMS 273 small cell lung,38.2 µM
same,TGI,M19-MEL melanoma,35.5 µM
